From patent US9840478B2 (MERCK SHARP & DOHME CORP., priority 2013, dated 2017)

Tested on: HIV-1 (H9IIIB strain)
Experiment: Cell-based HIV infection assay using a reporter (Cell-Based), MT4-GFP cells
Conditions: Human immunodeficiency virus 1, MT4-GFP cells infected with HIV-1 H9IIIB; 50% normal human serum; mean of at least two independent experiments; read-out: Cell-based IP
Method in brief: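 MT4-GFP cells (HIV LTR-driven GFP) infected 24 h with HIV-1 H9IIIB at low MOI, then washed and plated with compounds in RPMI + 50% normal human serum, 0.4% DMSO final. Green cells counted at 24 and 48 h; R0 = 48 h/24 h ratio, inhibition normalized to DMSO and triple-drug control; IC50 from 4-parameter fit.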

Question: CC(C)[C@H](c1ccc(Cl)cc1)[C@H](N)C(=O)Nc1cncc(F)c1CC[C@H]1CNC[C@H](C)N1S(=O)(=O)c1ccccc1 [Example 126, (βR)-4-chloro-N-(5-fluoro-4-{2-[(2S,6S)-6-methyl-1-(phenylsulfonyl)piperazin-2-yl]ethyl}pyridin-3-yl)-β-(1-methylethyl)-L-phenylalaninamide] was tested. Which IC50 did it give?
Answer: 0.016 µM

Question: CC(C)[C@H](c1ccc(Cl)cc1)[C@H](N)C(=O)Nc1cccc(F)c1CC[C@H]1CNC[C@H](C)N1S(=O)(=O)C1CC1 [Example 127, (βR)-4-chloro-N-(2-{2-[(2S,6S)-1-(cyclopropylsulfonyl)-6-methylpiperazin-2-yl]ethyl}-3-fluorophenyl)-β-(1-methylethyl)-L-phenylalaninamide] was tested. Which IC50 did it give?
Answer: 0.3 µM

Question: CC(C)[C@H](c1ccc(Cl)cc1)[C@H](N)C(=O)Nc1cccc(F)c1CC[C@H]1CNC[C@@H](C)N1S(=O)(=O)C1CC1 [Example 128, (βR)-4-chloro-N-(2-{2-[(2S,6R)-1-(cyclopropylsulfonyl)-6-methylpiperazin-2-yl]ethyl}-3-fluorophenyl)-β-(1-methylethyl)-L-phenylalaninamide] was tested. Which IC50 did it give?
Answer: 0.61 µM

Question: With C[C@H]1CNC[C@H](CCc2c(F)cccc2NC(=O)[C@@H](N)[C@@H](c2ccc(F)cc2)C2CCOCC2)N1S(C)(=O)=O [Example 129, (βR)-4-fluoro-N-(3-fluoro-2-{2-[(2S,6S)-6-methyl-1-(methylsulfonyl)piperazin-2-yl]ethyl}phenyl)-β-(tetrahydro-2H-pyran-4-yl)-L-phenylalaninamide] as the molecule, how does the IC50 read?
Answer: 0.21 µM

Question: COC(=O)N[C@H](C(=O)Nc1cccc(F)c1CC[C@H]1CNC[C@H](C)N1S(C)(=O)=O)[C@@H](c1ccc(F)cc1)C1CCOCC1 [Example 130, (βR)-4-fluoro-N-(3-fluoro-2-{2-[(2S,6S)-6-methyl-1-(methylsulfonyl)piperazin-2-yl]ethyl}phenyl)-Nα-(methoxycarbonyl)-β-(tetrahydro-2H-pyran-4-yl)-L-phenylalaninamide] was tested. Which IC50 did it give?
Answer: 0.055 µM

Question: C[C@H]1CNC[C@H](CCc2c(F)cccc2NC(=O)[C@@H](N)[C@@H](c2ccc(Cl)cc2)C2CCOCC2)N1S(=O)(=O)c1ccccc1 [Example 131, (βR)-4-chloro-N-(3-fluoro-2-{2-[(2S,6S)-6-methyl-1-(phenylsulfonyl)piperazin-2-yl]ethyl}phenyl)-β-(tetrahydro-2H-pyran-4-yl)-L-phenylalaninamide] was tested. Which IC50 did it give?
Answer: 0.017 µM

Question: COC(=O)N[C@H](C(=O)Nc1cccc(F)c1CC[C@H]1CNC[C@H](C)N1S(=O)(=O)c1ccccc1)[C@@H](c1ccc(Cl)cc1)C1CCOCC1 [Example 132, (βR)-4-chloro-N-(3-fluoro-2-{2-[(2S,6S)-6-methyl-1-(phenylsulfonyl)piperazin-2-yl]ethyl}phenyl)-Nα-(methoxycarbonyl)-β-(tetrahydro-2H-pyran-4-yl)-L-phenylalaninamide] was tested. Which IC50 did it give?
Answer: 0.011 µM

Question: Which IC50 does the source give for C[C@@H]1CNC[C@H](CCc2c(F)cccc2NC(=O)[C@@H](N)C(c2cccc(F)c2)c2cccc(F)c2)N1S(=O)(=O)c1ccccc1 [Example 133, 3-fluoro-N-(3-fluoro-2-{2-[(2S,6R)-6-methyl-1-(phenylsulfonyl)piperazin-2-yl]ethyl}phenyl)-β-(3-fluorophenyl)-L-phenylalaninamide] here?
Answer: 0.055 µM

Question: Which IC50 does the source give for COC(=O)N[C@H](C(=O)Nc1cccc(F)c1CC[C@H]1CNC[C@@H](C)N1S(=O)(=O)c1ccccc1)C(c1cccc(F)c1)c1cccc(F)c1 [Example 134, 3-fluoro-N-(3-fluoro-2-{2-[(2S,6R)-6-methyl-1-(phenylsulfonyl)piperazin-2-yl]ethyl}phenyl)-β-(3-fluorophenyl)-Nα-(methoxycarbonyl)-L-phenylalaninamide] here?
Answer: 0.063 µM

Question: C[C@@H]1CNC[C@H](CCc2c(F)cncc2NC(=O)[C@@H](N)[C@@H](c2ccc(Cl)cc2)c2cccc(F)c2)N1S(=O)(=O)c1ccccc1 [Example 135, (βS)-4-chloro-N-(5-fluoro-4-{2-[(2S,6R)-6-methyl-1-(phenylsulfonyl)piperazin-2-yl]ethyl}pyridin-3-yl)-β-(3-fluorophenyl)-L-phenylalaninamide] was tested. Which IC50 did it give?
Answer: 0.023 µM

Question: COC(=O)N[C@H](C(=O)Nc1cncc(F)c1CC[C@H]1CNC[C@H](C)N1S(=O)(=O)c1ccc(OC)cc1)[C@@H](c1ccc(Cl)cc1)C1CCOCC1 [Example 136, (βR)-4-chloro-N-[5-fluoro-4-(2-{(2S,6S)-1-[(4-methoxyphenyl)sulfonyl]-6-methylpiperazin-2-yl}ethyl)pyridin-3-yl]-Nα-(methoxycarbonyl)-β-(tetrahydro-2H-pyran-4-yl)-L-phenylalaninamide] was tested. Which IC50 did it give?
Answer: 0.01 µM

Question: C[C@H]1CNC[C@H](CCc2c(F)cccc2NC(=O)[C@@H](N)C(c2cccc(F)c2)c2cccc(F)c2)N1S(=O)(=O)c1ccccc1Cl [Example 137, N-[2-(2-{(2S,6S)-1-[(2-chlorophenyl)sulfonyl]-6-methylpiperazin-2-yl}ethyl)-3-fluorophenyl]-3-fluoro-β-(3-fluorophenyl)-L-phenylalaninamide] was tested. Which IC50 did it give?
Answer: 0.24 µM

Question: For COC(=O)N[C@H](C(=O)Nc1cccc(F)c1CC[C@H]1CNC[C@H](C)N1S(=O)(=O)c1ccccc1Cl)C(c1cccc(F)c1)c1cccc(F)c1 [Example 138, N-[2-(2-{(2S,6S)-1-[(2-chlorophenyl)sulfonyl]-6-methylpiperazin-2-yl}ethyl)-3-fluorophenyl]-3-fluoro-β-(3-fluorophenyl)-Nα-(methoxycarbonyl)-L-phenylalaninamide], which IC50 is on record?
Answer: 0.15 µM

Question: How did the IC50 turn out when COC(=O)N[C@H](C(=O)Nc1cccc(F)c1CC[C@H]1CNC[C@H](C)N1S(C)(=O)=O)[C@@H](c1ccc(Cl)cc1)C1CCOCC1 [Example 139, (βR)-4-chloro-N-(3-fluoro-2-{2-[(2S,6S)-6-methyl-1-(methylsulfonyl)piperazin-2-yl]ethyl}phenyl)-Nα-(methoxycarbonyl)-β-(tetrahydro-2H-pyran-4-yl)-L-phenylalaninamide] was run?
Answer: 0.036 µM

Question: CC(C)[C@H](c1ccc(Cl)cc1)[C@H](N)C(=O)Nc1cccc(F)c1CC[C@H]1CNC[C@H](C)N1S(=O)(=O)c1ccc(OC(F)(F)F)cc1 [Example 140, (βR)-4-chloro-N-(3-fluoro-2-{2-[(2S,6S)-6-methyl-1-{[4-(trifluoromethoxy)phenyl]sulfonyl}piperazin-2-yl]ethyl}phenyl)-β-(1-methylethyl)-L-phenylalaninamide] was tested. Which IC50 did it give?
Answer: 0.25 µM

Question: How did the IC50 turn out when C[C@H]1CNC[C@H](CCc2c(F)cccc2NC(=O)[C@@H](N)[C@@H](c2ccc(Cl)cc2)C2CCOCC2)N1S(=O)(=O)C1CC1 [Example 141, (βR)-4-chloro-N-(2-{2-[(2S,6S)-1-(cyclopropylsulfonyl)-6-methylpiperazin-2-yl]ethyl}-3-fluorophenyl)-β-(tetrahydro-2H-pyran-4-yl)-L-phenylalaninamide] was run?
Answer: 0.077 µM

Question: With COC(=O)N[C@H](C(=O)Nc1cccc(F)c1CC[C@H]1CNC[C@H](C)N1S(=O)(=O)c1ccc(OC(F)(F)F)cc1)[C@@H](c1ccc(Cl)cc1)C(C)C [Example 142, (βR)-4-chloro-N-(3-fluoro-2-{2-[(2S,6S)-6-methyl-1-{[4-(trifluoromethoxy)phenyl]sulfonyl}piperazin-2-yl]ethyl}phenyl)-Nα-(methoxycarbonyl)-β-(1-methylethyl)-L-phenylalaninamide] as the molecule, how does the IC50 read?
Answer: 0.084 µM

Question: For COC(=O)N[C@H](C(=O)Nc1cccc(F)c1CC[C@H]1CNC[C@H](C)N1S(=O)(=O)c1ccccc1Cl)[C@@H](c1ccc(Cl)cc1)C(C)C [Example 143, (βR)-4-chloro-N-[2-(2-{(2S,6S)-1-[(2-chlorophenyl)sulfonyl]-6-methylpiperazin-2-yl}ethyl)-3-fluorophenyl]-Nα-(methoxycarbonyl)-β-(1-methylethyl)-L-phenylalaninamide], which IC50 is on record?
Answer: 0.57 µM

Question: COC(=O)N[C@H](C(=O)Nc1cccc(F)c1CC[C@H]1CNC[C@H](C)N1S(=O)(=O)C1CC1)[C@@H](c1ccc(Cl)cc1)C(C)C [Example 144, (βR)-4-chloro-N-(2-{2-[(2S,6S)-1-(cyclopropylsulfonyl)-6-methylpiperazin-2-yl]ethyl}-3-fluorophenyl)-Nα-(methoxycarbonyl)-β-(1-methylethyl)-L-phenylalaninamide] was tested. Which IC50 did it give?
Answer: 0.093 µM

Question: How did the IC50 turn out when COC(=O)N[C@H](C(=O)Nc1cccc(F)c1CC[C@H]1CNC[C@@H](C)N1S(=O)(=O)C1CC1)[C@@H](c1ccc(Cl)cc1)C(C)C [Example 145, (βR)-4-chloro-N-(2-{2-[(2S,6R)-1-(cyclopropylsulfonyl)-6-methylpiperazin-2-yl]ethyl}-3-fluorophenyl)-Nα-(methoxycarbonyl)-β-(1-methylethyl)-L-phenylalaninamide] was run?
Answer: 0.17 µM

Question: COC(=O)N[C@H](C(=O)Nc1cccc(F)c1CC[C@H]1CNC[C@@H](C)N1S(C)(=O)=O)[C@@H](c1ccc(F)cc1)C1CCOCC1 [Example 146, (βR)-4-fluoro-N-(3-fluoro-2-{2-[(2S,6R)-6-methyl-1-(methylsulfonyl)piperazin-2-yl]ethyl}phenyl)-Nα-(methoxycarbonyl)-β-(tetrahydro-2H-pyran-4-yl)-L-phenylalaninamide] was tested. Which IC50 did it give?
Answer: 0.072 µM

Question: For CCOC(=O)N[C@H](C(=O)Nc1cccc(F)c1CC[C@H]1CNC[C@@H](C)N1S(=O)(=O)c1ccccc1)[C@@H](c1ccc(Cl)cc1)C1CCOCC1 [Example 148, (βR)-4-chloro-Nα-(ethoxycarbonyl)-N-(3-fluoro-2-{2-[(2S,6R)-6-methyl-1-(phenylsulfonyl)piperazin-2-yl]ethyl}phenyl)-β-(tetrahydro-2H-pyran-4-yl)-L-phenylalaninamide], which IC50 is on record?
Answer: 0.0088 µM

Question: With COc1ccc([C@H](c2ccc(Cl)cc2)[C@H](N)C(=O)Nc2cccc(F)c2CC[C@H]2CNC[C@H](C)N2S(=O)(=O)C2CC2)cn1 [Example 150, (βS)-4-chloro-N-(2-{2-[(2S,6S)-1-(cyclopropylsulfonyl)-6-methylpiperazin-2-yl]ethyl}-3-fluorophenyl)-β-(6-methoxypyridin-3-yl)-L-phenylalaninamide] as the molecule, how does the IC50 read?
Answer: 0.026 µM
